Patent US8877208B2 (priority 2008, dated 2014)
Entries after “also recorded” stand apart in the source; their conditions may differ.

Tested on: virus

Substance: TRITON-X100
- biocidal activity against virus (ability to inactivate a virus): less biocidal activity; also recorded: less ability to inactivate a virus
